From patent US10919935B2, “Antimicrobial peptide derived from myxinidin peptide and uses thereof” (INDUSTRY-ACADEMIC COOPERATION FOUNDATION, CHOSUN UNIVERSITY, priority 2015, dated 2021)
Residues, ends and D or L forms follow the SMILES beside them.

Key:
[1] = system: L. monocytogenes; assay: MIC at salt concentration (Example 3); format: cell-based, Listeria monocytogenes
Method: To compare the antimicrobial activity of the peptide produced by the method of Example 1, the inventors of the present invention measured the minimum growth inhibitory concentration (MIC), which is minimum concentration of the peptide showing no dissociation of bacterial cells, at salt concentration.
Specifically, the bacterial strain described in the above Table 2 was cultured in each medium to a mid-log phase. Then, after dilution to bacterial cell concentration of 2×10^5 cells/100 μl, the cells were inoculated to a microtiter plate (NUNC, USA). Thereafter, myxinidin 1, myxinidin 2, or myxinidin 3 peptides which have been synthesized in Example 1 above was diluted, 1/2 times for each, with BSA+150 mM sodium chloride (NaCl) solution, physiological saline (PBS) solution, or 10 mM sodium phosphate (SP) solution in a 96-well plate. After adding the cells to a plate, the cells were cultured for 12 hours at 37° C. By using a microtiter plate reader (Merck Elisa reader, Germany), the absorbance was measured at a wavelength of 600 nm to determine the MIC value of each bacterial strain. As a control group, myxinidin as a mother peptide was subjected to the same processes as above and the MIC value of each bacterial strain was obtained.

[2] = system: S. aureus; assay: Anti-biofilm activity (crystal violet); format: cell-based, Staphylococcus aureus
Method: (§1) To compare the antimicrobial activity of the peptide produced by the method of Example 1, the inventors of the present invention measured the biofilm inhibitory concentration value of the peptide showing no dissociation of bacterial cells.
(§2) Specifically, the Gram-negative bacteria and Gram-positive bacteria among the bacterial strains described in the above Table 2 were cultured in each medium to a mid-log phase. Then, after dilution to bacterial cell concentration of 5×10^5 cells/100 μl, the cells were inoculated to a microtiter plate (NUNC, USA). Thereafter, myxinidin 1, myxinidin 2, or myxinidin 3 peptides which have been synthesized in Example 1 above was diluted, 1/10 times for each, with physiological saline (PBS) solution in a 96-well plate. After adding the cells to a plate, the cells were cultured for 12 hours at 37° C. After removing the supernatant, the cells were fixed with 100% methanol and reacted for 2 hours with Crystal violet staining solution followed by rinsing for 3 times. Then, after dissolving in 95% ethanol, the absorbance was measured at a wavelength of 595 nm by using a microtiter plate reader (Merck Elisa reader, Germany) to determine the biofilm inhibitory concentration value of each bacterial strain. As a control group, myxinidin as a mother peptide was subjected to the same processes as above and the biofilm inhibitory concentration value of each bacterial strain was obtained.

[3] = system: L. monocytogenes; assay: Anti-biofilm activity (crystal violet); format: cell-based, Listeria monocytogenes
Method: as §1, §2

[4] = system: P. aeruginosa; assay: Anti-biofilm activity (crystal violet); format: cell-based, Pseudomonas aeruginosa
Method: as §1, §2

[5] = system: Staphylococcus aureus CCARM 3114; format: cell-based
Method: (§3) To compare the antimicrobial activity of the peptide produced by the method of Example 1, the inventors of the present invention measured the growth minimum inhibitory concentration (MIC), which is minimum concentration of the peptide showing no dissociation of bacterial cells.
(§4) Specifically, the bacterial strain described in the following Table 2 was purchased and cultured in each medium to a mid-log phase. Then, after dilution to bacterial cell concentration of 2×10^5 cells/100 μl, the cells were inoculated to a microtiter plate (NUNC, USA). Thereafter, myxinidin 1, myxinidin 2, or myxinidin 3 peptides which have been synthesized in Example 1 above was diluted, 1/2 times for each, with BSA (bovine serum albumin) solution in a 96-well plate. After adding the cells to a plate, the cells were cultured for 12 hours at 37° C. By using a microtiter plate reader (Merck Elisa reader, Germany), the absorbance was measured at a wavelength of 600 nm to determine the MIC value of each bacterial strain. As a control group, myxinidin as a mother peptide was subjected to the same processes as above and the MIC value of each bacterial strain was obtained.

[6] = system: Salmonella typhimurium KCTC 1926; format: cell-based
Method: as §3, §4

[7] = system: Staphylococcus aureus ATCC 25923; format: cell-based
Method: as §3, §4

[8] = system: Salmonella typhimurium CCARM 8013; format: cell-based
Method: as §3, §4

[9] = system: Salmonella typhimurium CCARM 8009; format: cell-based
Method: as §3, §4

[10] = system: Escherichia coli ATCC 25922; format: cell-based
Method: as §3, §4

[11] = system: Pseudomonas aeruginosa Isolated strain 3592; format: cell-based
Method: as §3, §4

[12] = system: Staphylococcus aureus CCARM 3709; format: cell-based
Method: as §3, §4

[13] = in vitro; format: cell-based; conditions: human, NHK cells (normal human keratinocytes)
Method: To determine the cytotoxicity of the peptide produced by the method of Example 1 in normal cell line, toxicity was measured by using NHK cells (Normal Human Keratinocyte cells).
Specifically, NHK cells which have been cultured in Epilife medium with 60 μM calcium (Gibco, USA) containing 10% HKGS (Human Keratinocyte Growth Supplement) (Gibco, USA) were aliquoted in a 96-well plate to have 1×10^4 cells per well. After culturing them for 24 hours, the cells were subjected to a treatment with myxinidin, myxinidin 1, myxinidin 2, or myxinidin 3 peptide, each at concentration of 3.125, 6.25, 12.5, or 25.0 μM/well, followed by reaction for 24 hours in a 5% CO2 incubator. After the culture, a reaction solution containing 5 mg/ml MTT (Thiazolyl Blue Tetrazolium Bromide) dissolved in physiological saline (PBS) was added in an amount of 20 μl to each well and allowed to react for 4 hours. After that, the supernatant was removed, and, by dissolving MTT crystals that are formed by adding 200 μl of DMSO, the absorbance at 560 nm was measured to determine the cell survival ability.

With CC[C@H](C)[C@H](NC(=O)[C@H](Cc1c[nH]c2ccccc12)NC(=O)[C@H](CCCNC(=N)N)NC(=O)[C@@H](NC(=O)[C@@H](N)CCCNC(=N)N)[C@@H](C)CC)C(=O)N[C@@H](CC(C)C)C(=O)N[C@@H](CCCNC(=N)N)C(=O)N[C@@H](Cc1ccc(O)cc1)C(=O)N[C@@H](Cc1c[nH]c2ccccc12)C(=O)N[C@@H](CCCNC(=N)N)C(=O)N[C@@H](Cc1c[nH]c2ccccc12)C(=O)N[C@@H](CO)C(N)=O [Myxinidin 3, RIRWILRYWRWS-NH2] (H-RIRWILRYWRWS-NH2; N-terminus assumed) the “Antimicrobial activity (MIC) according to salt concentration” value (“Antimicrobial activity (MIC) according” for short) ([1]; NaCl (BSA+150 mM sodium chloride)) was 2, the “Antimicrobial activity (MIC) according” value ([1]; PBS) was 4 and the “Antimicrobial activity (MIC) according” value ([1]; SP (10 mM sodium phosphate)) was 4. The Biofilm forming ability ([2]; peptide 0.25 μM) was 85%, the Biofilm forming ability ([2]; peptide 0.5 μM) was 84% and the Biofilm forming ability ([2]; peptide 1 μM) was 84%. For the same compound, the Biofilm forming ability ([2]; peptide 2 μM) was 71%, the Biofilm forming ability ([2]; peptide 4 μM) was 28% and the Biofilm forming ability ([2]; peptide 8 μM) was 17%. For the same compound, the Biofilm forming ability ([2]; peptide 16 μM) was 16%, the Biofilm forming ability ([2]; peptide 32 μM) was 14% and the Biofilm forming ability ([3]; peptide 0.25 μM) was 94%. The Biofilm forming ability ([3]; peptide 0.5 μM) was 87%, the Biofilm forming ability ([3]; peptide 1 μM) was 87% and the Biofilm forming ability ([3]; peptide 2 μM) was 83%. The Biofilm forming ability ([3]; peptide 4 μM) was 22%, the Biofilm forming ability ([3]; peptide 8 μM) was 21% and the Biofilm forming ability ([3]; peptide 16 μM) was 18%. For the same compound, the Biofilm forming ability ([3]; peptide 32 μM) was 16%, the Biofilm forming ability ([4]; peptide 0.25 μM) was 100% and the Biofilm forming ability ([4]; peptide 0.5 μM) was 97%. For the same compound, the Biofilm forming ability ([4]; peptide 1 μM) was 97%, the Biofilm forming ability ([4]; peptide 2 μM) was 64% and the Biofilm forming ability ([4]; peptide 4 μM) was 8%. For the same compound, the Biofilm forming ability ([4]; peptide 8 μM) was 7%, the Biofilm forming ability ([4]; peptide 16 μM) was 7% and the Biofilm forming ability ([4]; peptide 32 μM) was 7%. The “Minimum growth inhibitory concentration” value [5] was 8 µM, the “Minimum growth inhibitory concentration” value [6] was 1 µM and the “Minimum growth inhibitory concentration” value [7] was 0.25 µM. For the same compound, the “Minimum growth inhibitory concentration” value [8] was 4 µM, the “Minimum growth inhibitory concentration” value [9] was 4 µM and the “Minimum growth inhibitory concentration” value [10] was 0.5 µM. The “Minimum growth inhibitory concentration” value [11] was 8 µM, the “Minimum growth inhibitory concentration” value [12] was 2 µM and the viability at 24 h, 3.125 µM [13] was 100%. For the same compound, the viability at 24 h, 6.25 µM [13] was 100%, the viability at 24 h, 12.5 µM [13] was 100% and the viability at 24 h, 25 µM [13] was 100%.
